{"source": "patent US12264156B2", "about": "“Compounds and pharmaceutical compositions thereof for the treatment of diseases” (GALAPAGOS NV, priority 2018, dated 2025)", "data": [{"system": "LPS-induced TNFα in monocyte-derived macrophages (MdM)", "test": "MdM assay: LPS-triggered TNFα (ELISA)", "assay_type": "cell-based, human", "details": "Homo sapiens, Macrophage, 20 h, monocyte-derived macrophages, LPS 200 ng/mL, supernatant after 20 h; read-out: TNFα EC50", "summary_of_the_method": "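Human monocyte-derived macrophages from CD14+ bead-selected buffy-coat PBMCs, used on day 10, pre-treated with compound for 1 h at 37 °C (0.2% DMSO), then stimulated with 200 ng/mL LPS. Supernatant taken after 20 h for TNFα sandwich ELISA (IL-10 at 2 h).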", "units": {"EC50": "nM"}, "values": [{"smiles": "COc1cc(-c2cnc3cc(OCCN4CCOC[C@@H]4C)ccn23)cc2c1C(=O)N(CC(F)(F)F)CC2", "note": "[Cpd 257, 8-methoxy-6-[7-[2-[(3S)-3-methylmorpholin-4-yl]ethoxy]imidazo[1,2-a]pyridin-3-yl]-2-(2,2,2-trifluoroethyl)-3,4-dihydroisoquinolin-1-one]", "EC50": "100 to 1000"}, {"smiles": "COc1cc(-c2cnc3cc(OCc4cnco4)ccn23)cc2c1C(=O)N(CC(F)(F)F)CC2", "note": "[compound 126, 8-methoxy-6-[7-(oxazol-5-ylmethoxy)imidazo[1,2-a]pyridin-3-yl]-2-(2,2,2-trifluoroethyl)-3,4-dihydroisoquinolin-1-one]", "EC50": "100 to 1000"}, {"smiles": "CCNCCOc1ccn2c(-c3cc(OC)c(C(=O)NC4CC4)c(OC(F)F)c3)cnc2c1", "note": "[compound 37, N-cyclopropyl-2-(difluoromethoxy)-4-[7-[2-(ethylamino)ethoxy]imidazo[1,2-a]pyridin-3-yl]-6-methoxy-benzamide]", "EC50": "100 to 1000"}, {"smiles": "COc1cc(-c2cnc3cc(OCC4CCO4)ccn23)cc2c1C(=O)N(CC(F)(F)F)CC2", "note": "(stereo not drawn) [compound 125, 8-methoxy-6-[7-(oxetan-2-ylmethoxy)imidazo[1,2-a]pyridin-3-yl]-2-(2,2,2-trifluoroethyl)-3,4-dihydroisoquinolin-1-one]", "EC50": "100 to 1000"}, {"smiles": "COc1cc(-c2cnc3cc(OCC4CCCCN4C)ccn23)cc(OC(F)F)c1C(=O)NC1CC1", "note": "(stereo not drawn) [compound 23, N-cyclopropyl-2-(difluoromethoxy)-6-methoxy-4-[7-[(1-methyl-2-piperidyl)methoxy]imidazo[1,2-a]pyridin-3-yl]benzamide]", "EC50": "100 to 1000"}, {"smiles": "CCOC(=O)C1(F)CCN(CCCOc2ccn3c(-c4cc(OC)c(C(=O)NC5CC5)c(OC(F)F)c4)cnc3c2)CC1", "note": "[Cpd 363, ethyl 1-[3-[3-[4-(cyclopropylcarbamoyl)-3-(difluoromethoxy)-5-methoxy-phenyl]imidazo[1,2-a]pyridin-7-yl]oxypropyl]-4-fluoro-piperidine-4-carboxylate]", "EC50": "0.1 to 100"}, {"smiles": "COc1cc(-c2cnc3cc(OC[C@H]4COCCO4)ccn23)cc2c1C(=O)N(CC(F)F)CC2", "note": "[compound 219, 2-(2,2-difluoroethyl)-6-[7-[[(2R)-1,4-dioxan-2-yl]methoxy]imidazo[1,2-a]pyridin-3-yl]-8-methoxy-3,4-dihydroisoquinolin-1-one]", "EC50": "1000 to 5000"}, {"smiles": "COc1cc(-c2cnc3cc(OCCOCCN4CCCCC4)ccn23)cc(OC(F)F)c1C(=O)NC1CC1", "note": "[compound 305]", "EC50": "100 to 1000"}, {"smiles": "COc1cc(-c2cnc3cc(OCc4nncn4C)ccn23)cc(OC(F)F)c1C(=O)NC1CC1", "note": "[compound 227, N-cyclopropyl-2-(difluoromethoxy)-6-methoxy-4-[7-[(4-methyl-1,2,4-triazol-3-yl)methoxy]imidazo[1,2-a]pyridin-3-yl]benzamide]", "EC50": "> 5000"}, {"smiles": "COc1cc(-c2cnc3cc(OCCN4CCOCC4)ccn23)cc2c1C(=O)N(CC(F)F)CC2", "note": "[compound 218, 2-(2,2-difluoroethyl)-8-methoxy-6-[7-(2-morpholinoethoxy)imidazo [1,2-a]pyridin-3-yl]-3,4-dihydroisoquinolin-1-one]", "EC50": "100 to 1000"}, {"smiles": "COc1cc(-c2cnc3cc(OCCCN4CCNCC4)ccn23)cc(OC(F)F)c1C(=O)NC1CC1", "note": "[compound 278, N-cyclopropyl-2-(difluoromethoxy)-6-methoxy-4-[7-(3-piperazin-1-ylpropoxy)imidazo[1,2-a]pyridin-3-yl]benzamide]", "EC50": "1000 to 5000"}, {"smiles": "COc1cc(-c2cnc3cc(OCC4CN(C)C4)ccn23)cc2c1C(=O)N(CC(F)(F)F)CC2", "note": "[compound 39, 8-methoxy-6-[7-[(1-methylazetidin-3-yl)methoxy]imidazo[1,2-a]pyridin-3-yl]-2-(2,2,2-trifluoroethyl)-3,4-dihydro isoquinolin-1-one]", "EC50": "100 to 1000"}]}]}
